Data from patent US20110178118A1, “PALONOSETRON FOR THE TREATMENT OF CHEMOTHERAPY INDUCED EMESES” (priority 2002, published 2011).

Conditions: in vivo
Description: A randomized, double-blind, multicenter, dose-ranging Phase II trial was performed to identify the dose response relationship among single I.V. doses of palonosetron. Patients receiving highly emetogenic chemotherapy including cyclophosphamide (>1100 mg/m2) and cisplatin (>70 mg/m2), commonly associated with delayed emesis, were assigned to one of five dose groups of a single I.V. administration of palonosetron. Palonosetron was administered alone (without dexamethasone) as a 30 second intravenous injection, 30 minutes prior to chemotherapy administration. The primary endpoint was 24-hour complete responses (no emesis, no rescue) (CR). Secondary endpoints included complete control (no emesis, no rescue, mild nausea) (CC) and 5-day CR.
161 patients (32 women, 129 men) participated.

Compound: Cl.O=C1c2cccc3c2[C@H](CCC3)CN1[C@@H]1CN2CCC1CC2 [Palonosetron, (3aS)-2,3,3a,4,5,6-Hexahydro-2-[(S)-1-Azabicyclo[2.2.2]oct-3-yl]2,3,3a,4,5,6-hexahydro-1-oxo-1Hbenz[de]isoquinoline hydrochloride]
- adverse events either mild or moderate (both, human): 83.9%
- adverse events not attributed to study medication (both, human): 86.0%
- adverse events related to study medication: abdominal pain (both, human): 2.5%
- adverse events related to study medication: constipation (both, human): 8.7%
- adverse events related to study medication: dizziness (both, human): 2.5%
- adverse events related to study medication: headache (both, human): 19.3%
- serious drug-related events: No serious drug-related events were reported
